# Assay results as given in BindingDB's records for doi:10.7270/Q2SX6GDH (n/a, 1996).
# Tests used:
# [1] = molecular target: T1, 5-hydroxytryptamine receptor 3A/3B (Rattus norvegicus, UniProt P35563+Q9JJ16); assay: ChEBML_3165
# T1 sequence (P35563 whole entry): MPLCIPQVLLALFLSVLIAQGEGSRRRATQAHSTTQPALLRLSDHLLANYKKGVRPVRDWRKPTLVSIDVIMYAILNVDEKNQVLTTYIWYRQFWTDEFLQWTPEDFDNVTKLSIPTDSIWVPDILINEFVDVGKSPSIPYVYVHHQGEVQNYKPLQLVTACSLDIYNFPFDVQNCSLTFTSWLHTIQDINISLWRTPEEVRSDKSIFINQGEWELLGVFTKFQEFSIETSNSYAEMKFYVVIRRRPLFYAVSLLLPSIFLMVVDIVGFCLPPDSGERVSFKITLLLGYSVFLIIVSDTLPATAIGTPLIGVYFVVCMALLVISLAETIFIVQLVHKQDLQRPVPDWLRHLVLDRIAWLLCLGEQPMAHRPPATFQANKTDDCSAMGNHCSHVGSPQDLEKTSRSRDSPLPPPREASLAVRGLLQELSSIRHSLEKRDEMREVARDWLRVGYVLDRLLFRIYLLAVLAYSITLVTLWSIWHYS
# T1 sequence (Q9JJ16 whole entry): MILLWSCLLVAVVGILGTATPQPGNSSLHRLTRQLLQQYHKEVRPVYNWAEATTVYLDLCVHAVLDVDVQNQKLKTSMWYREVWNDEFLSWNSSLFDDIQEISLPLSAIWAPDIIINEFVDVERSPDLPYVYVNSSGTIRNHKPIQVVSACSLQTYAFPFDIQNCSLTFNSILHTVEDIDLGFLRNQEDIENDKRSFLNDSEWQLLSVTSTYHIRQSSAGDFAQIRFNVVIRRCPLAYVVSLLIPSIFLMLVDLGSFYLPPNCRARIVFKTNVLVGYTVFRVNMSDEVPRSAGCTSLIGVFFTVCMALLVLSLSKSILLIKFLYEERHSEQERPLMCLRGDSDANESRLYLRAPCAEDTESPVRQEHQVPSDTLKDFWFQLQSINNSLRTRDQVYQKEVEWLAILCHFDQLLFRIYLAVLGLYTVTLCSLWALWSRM
# Protocol: (§1) Compound was tested for its ability to displace [3H]-Q-ICS 205-930 from 5-hydroxytryptamine 3 receptor in rat cortex homogenates
# [2] = molecular target: T2, 5-hydroxytryptamine receptor 1D (Sus scrofa, UniProt P79400); assay: (§2) Compound was tested for its ability to displace [3H]-5-HT binding to 5-hydroxytryptamine 1D receptor recognition sites in pig caudate membranes
# [3] = molecular target: 5-hydroxytryptamine receptor 2A (Rattus norvegicus, UniProt P14842); assay: ChEBML_2582
# Protocol: Compound was tested for its ability to displace [3H]DOB from 5-hydroxytryptamine 2A receptor in rat cortex homogenates
# [4] = molecular target: T2, 5-hydroxytryptamine receptor 1D; assay: ChEBML_1955
# Protocol: as §2
# [5] = Compound was tested for its ability to displace [3H]8-OH-DPAT from 5-hydroxytryptamine 1A receptor in pig cortex
# [6] = Compound was tested for its ability to displace [3H]-5-HT binding to 5-hydroxytryptamine 1D receptor recognition sites in pig caudate membranes
# [7] = Compound was tested for its ability to displace [3H]mesulergine from 5-hydroxytryptamine 2C receptor in pig cortex
# [8] = molecular target: T2, 5-hydroxytryptamine receptor 1D; assay: Compound was tested for its ability to displace [125I]GTI binding to 5-hydroxytryptamine 1D receptor recognition sites in pig caudate membranes
# [9] = molecular target: T1, 5-hydroxytryptamine receptor 3A/3B; assay: as §1
# T2 sequence (P79400 whole entry): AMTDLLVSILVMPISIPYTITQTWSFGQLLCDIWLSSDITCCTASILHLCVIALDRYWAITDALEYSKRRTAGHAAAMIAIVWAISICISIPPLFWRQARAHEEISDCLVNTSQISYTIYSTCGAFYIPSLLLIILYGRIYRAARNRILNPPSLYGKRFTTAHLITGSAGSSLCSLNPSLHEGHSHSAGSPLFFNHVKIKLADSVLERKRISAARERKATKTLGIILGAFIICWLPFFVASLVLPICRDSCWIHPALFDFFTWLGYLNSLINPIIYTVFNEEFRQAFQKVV
# Chain of 5-hydroxytryptamine receptor 2A (P14842 whole entry): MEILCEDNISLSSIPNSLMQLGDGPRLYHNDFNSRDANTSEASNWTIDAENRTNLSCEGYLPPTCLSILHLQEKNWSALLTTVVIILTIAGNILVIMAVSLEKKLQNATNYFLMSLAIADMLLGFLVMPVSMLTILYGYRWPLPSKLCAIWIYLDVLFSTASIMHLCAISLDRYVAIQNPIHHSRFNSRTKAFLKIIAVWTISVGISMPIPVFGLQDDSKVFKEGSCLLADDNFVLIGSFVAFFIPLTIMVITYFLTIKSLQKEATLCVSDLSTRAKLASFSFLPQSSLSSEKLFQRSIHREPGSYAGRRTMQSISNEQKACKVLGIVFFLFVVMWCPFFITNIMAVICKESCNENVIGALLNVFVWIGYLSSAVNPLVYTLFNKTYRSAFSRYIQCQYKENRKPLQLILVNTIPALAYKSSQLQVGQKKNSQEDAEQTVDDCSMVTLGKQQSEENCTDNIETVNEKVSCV
Compound,IC50 [1],IC50 [2],IC50 [3],IC50 [4],IC50 [5],IC50 [6],IC50 [7],IC50 [8],IC50 [9]
"CN(C)CCc1c[nH]c2ccc(-n3cnnc3)cc12 [Dimethyl-[2-(5-[1,2,4]triazol-4-yl-1H-indol-3-yl)-ethyl]-amine]",> 10000 nM,2 nM,> 10000 nM,0.43 nM,–,–,–,–,–
CN(C)CCc1c[nH]c2ccc(-n3cncn3)cc12,–,–,–,–,25 nM,20 nM,500 nM,–,–
"CN(C)CCc1c[nH]c2ccc(Cn3cncn3)cc12 [N,N-dimethyl-2-[5-(1H-1,2,4-triazol-1-ylmethyl)-1H-indol-3-yl]ethanamine]",–,49 nM,7200 nM,–,–,–,–,16 nM,4100 nM
CNS(=O)(=O)Cc1ccc2[nH]cc(CCN(C)C)c2c1 [Sumax],–,–,–,–,–,–,–,–,> 10000 nM
CN1CCC(c2c[nH]c3ccc(-n4cnnc4)cc23)CC1,–,8 nM,> 10000 nM,1.2 nM,–,–,–,–,2700 nM
